Earlier results on 1 molecule are cited in patent US20220378803A1, “INJECTABLE COMPOSITIONS OF URSODEOXYCHOLIC ACID” (SHILPA MEDICARE LIMITED, priority 2019, published 2022).

The structures appear in SMILES notation.

With `C[C@H](CCC(=O)O)[C@H]1CC[C@H]2[C@@H]3[C@@H](O)C[C@@H]4C[C@H](O)CC[C@]4(C)[C@H]3CC[C@]12C` [UDCA, ursodeoxycholic acid], the solubility in water result is on record as “practically insoluble”.
